Laboratory results as given in patent publication US20230167088A1, “1-PYRAZINYLPYRAZOLYL-3-OXYALKYL ACIDS AND THEIR DERIVATIVES, AND THEIR USE FOR CONTROL OF UNDESIRED PLANT GROWTH” (BAYER AKTIENGESELLSCHAFT, priority 2020, published 2023).

Experiments:
VIOTR [1] = experiment: Herbicidal pre-emergence action 2a (greenhouse pots, visual scoring); type: in vivo, Viola tricolor; conditions: dosage 320 g/ha, visual scoring after about 3 weeks vs untreated controls
Source text: (§1) [table] a) Seeds of monocotyledonous and dicotyledonous weed plants and crop plants are placed in plastic or organic plant pots and covered with soil. The compounds of the invention, formulated in the form of wettable powders (WP) or as emulsion concentrates (EC), are then applied onto the surface of the covering soil as aqueous suspension or emulsion with addition of 0.5% additive at a water application rate of 600 1/ha (converted). After the treatment, the pots are placed in a greenhouse and kept under good growth conditions for the trial plants. After about 3 weeks, the effect of the preparations is scored visually in comparison with untreated controls as percentages. For example, 100% activity=the plants have died, 0% activity=like control plants. Tables B1 to B15 below show the effects of selected compounds of the general formula (I) according to Tables 1 and 2 on various harmful plants and an application rate corresponding to 320 g/ha and/or 80 g/ha, which were obtained by the experimental procedure mentioned above.

AMARE [2] = experiment: as above; type: in vivo, Amaranthus retroflexus; conditions: dosage 320 g/ha, visual scoring after about 3 weeks vs untreated controls
Source text: as §1

MATIN [3] = experiment: as above; type: in vivo, Matricaria inodora; conditions: dosage 320 g/ha, visual scoring after about 3 weeks vs untreated controls
Source text: as §1

MATIN [4] = experiment: Herbicidal post-emergence action 1b (twin sowing, 1280 g/ha); type: in vivo, Matricaria inodora; conditions: dosage 1280 g/ha, visual rating about 3 weeks after treatment
Procedure: (§2) [table] b) Seeds of mono- and dicotyledonous weed plants are placed in plastic pots in sandy loam soil (twin sowing with one species each of mono- or dicotyledonous weed plants per pot), covered with soil and cultivated in a greenhouse under controlled growth conditions. 2 to 3 weeks after sowing, the test plants are treated at the one-leaf stage. The compounds of the invention, formulated in the form of wettable powders (WP) or as emulsion concentrates (EC), are applied to the green parts of the plants as aqueous suspension or emulsion with addition of 0.5% additive at a water application rate equivalent to 600 litres per hectare. After the test plants have been kept in the greenhouse under optimum growth conditions for about 3 weeks, the activity of the preparations is rated visually in comparison to untreated controls. For example, 100% activity=the plants have died, 0% activity=like control plants. Tables A16 to A21 below show the effects of selected compounds of the general formula (I) according to Tables 1 and 2 on various harmful plants and at an application rate corresponding to 1280 g/ha, which were obtained by the experimental procedure mentioned above.

MATIN [5] = experiment: Herbicidal pre-emergence action 2b (doubly sown, 1280 g/ha); type: in vivo, Matricaria inodora; conditions: doubly sown pots, dosage 1280 g/ha, visual scoring after about 3 weeks
Source text: (§3) [table] b) Seeds of mono- and dicotyledonous weed plants are placed in plastic pots in sandy loam soil (doubly sown with one species each of mono- or dicotyledonous weed plants per pot) and covered with soil. The compounds of the invention, formulated in the form of wettable powders (WP) or as emulsion concentrates (EC), are then applied onto the surface of the covering soil as aqueous suspension or emulsion with addition of 0.5% additive at a water application rate equivalent to 600 litres per hectare. After the treatment, the pots are placed in a greenhouse and kept under good growth conditions for the trial plants. After about 3 weeks, the effect of the preparations is scored visually in comparison with untreated controls as percentages. For example, 100% activity=the plants have died, 0% activity=like control plants. Tables B16 to B21 below show the effects of selected compounds of the general formula (I) according to Tables 1 and 2 on various harmful plants and at an application rate corresponding to 1280 g/ha, which were obtained by the experimental procedure mentioned above.

POAAN [6] = experiment: Herbicidal post-emergence action 1b (twin sowing, 1280 g/ha); type: in vivo, Poa annua; conditions: dosage 1280 g/ha, visual rating about 3 weeks after treatment
Procedure: as §2

STEME [7] = experiment: Herbicidal pre-emergence action 2b (doubly sown, 1280 g/ha); type: in vivo, Stellaria media; conditions: doubly sown pots, dosage 1280 g/ha, visual scoring after about 3 weeks
Source text: as §3

STEME [8] = experiment: Herbicidal post-emergence action 1b (twin sowing, 1280 g/ha); type: in vivo, Stellaria media; conditions: dosage 1280 g/ha, visual rating about 3 weeks after treatment
Procedure: as §2

AMARE [9] = experiment: Herbicidal pre-emergence action 2b (doubly sown, 1280 g/ha); type: in vivo, Amaranthus retroflexus; conditions: doubly sown pots, dosage 1280 g/ha, visual scoring after about 3 weeks
Source text: as §3

DIGSA [10] = experiment: as above; type: in vivo, Digitaria sanguinalis; conditions: doubly sown pots, dosage 1280 g/ha, visual scoring after about 3 weeks
Source text: as §3

POAAN [11] = experiment: as above; type: in vivo, Poa annua; conditions: doubly sown pots, dosage 1280 g/ha, visual scoring after about 3 weeks
Source text: as §3

VERPE [12] = experiment: Herbicidal post-emergence action 1a (greenhouse pots, visual rating); type: in vivo, Veronica persica; conditions: dosage 320 g/ha, visual rating about 3 weeks after treatment
Procedure: (§4) [table] a) Seeds of monocotyledonous and dicotyledonous weeds and crop plants are placed in sandy loam in plastic or organic plant pots, covered with soil and cultivated in a greenhouse under controlled growth conditions. 2 to 3 weeks after sowing, the test plants are treated at the one-leaf stage. The compounds of the invention, formulated in the form of wettable powders (WP) or as emulsion concentrates (EC), are then sprayed onto the green parts of the plants as aqueous suspension or emulsion with addition of 0.5% additive at a water application rate of 600 1/ha (converted). After the test plants have been kept in the greenhouse under optimum growth conditions for about 3 weeks, the activity of the preparations is rated visually in comparison to untreated controls. For example, 100% activity=the plants have died, 0% activity=like control plants. Tables A1 to A15 below show the effects of selected compounds of the general formula (I) according to Tables 1 and 2 on various harmful plants and an application rate corresponding to 320 g/ha and/or 80 g/ha, which were obtained by the experimental procedure mentioned above.

VERPE [13] = experiment: Herbicidal pre-emergence action 2a (greenhouse pots, visual scoring); type: in vivo, Veronica persica; conditions: dosage 320 g/ha, visual scoring after about 3 weeks vs untreated controls
Source text: as §1

ECHCG [14] = experiment: Herbicidal pre-emergence action 2b (doubly sown, 1280 g/ha); type: in vivo, Echinochloa crus-galli; conditions: doubly sown pots, dosage 1280 g/ha, visual scoring after about 3 weeks
Source text: as §3

PHBPU = experiment: Herbicidal post-emergence action 1a (greenhouse pots, visual rating); type: in vivo, Pharbitis purpurea; conditions: dosage 320 g/ha, visual rating about 3 weeks after treatment
Procedure: as §4

SETVI = experiment: Herbicidal pre-emergence action 2a (greenhouse pots, visual scoring); type: in vivo, Setaria viridis; conditions: dosage 320 g/ha, visual scoring after about 3 weeks vs untreated controls
Source text: as §1

ALOMY [15] = experiment: Herbicidal post-emergence action 1a (greenhouse pots, visual rating); type: in vivo, Alopecurus myosuroides; conditions: Dosage 320 g/ha; rated visually about 3 weeks after treatment; 100% = plants have died, 0% = like control plants
Procedure: as §4

AMARE [16] = experiment: as above; type: in vivo, Amaranthus retroflexus; conditions: visual rating about 3 weeks after treatment
Procedure: as §4

VIOTR [17] = experiment: as above; type: in vivo, Viola tricolor; conditions: visual rating about 3 weeks after treatment
Procedure: as §4

AVEFA [18] = experiment: as above; type: in vivo, Avena fatua; conditions: Dosage 320 g/ha; rated visually about 3 weeks after treatment; 100% = plants have died, 0% = like control plants
Procedure: as §4

LOLRI [19] = experiment: Herbicidal pre-emergence action 2a (greenhouse pots, visual scoring); type: in vivo, Lolium rigidum; conditions: dosage 320 g/ha, visual scoring after about 3 weeks vs untreated controls
Source text: as §1

ALOMY [20] = experiment: as above; type: in vivo, Alopecurus myosuroides; conditions: dosage 320 g/ha, visual scoring after about 3 weeks
Source text: as §1

DIGSA [21] = experiment: as above; type: in vivo, Digitaria sanguinalis; conditions: dosage 320 g/ha, visual scoring after about 3 weeks
Source text: as §1

LOLRI [22] = experiment: Herbicidal post-emergence action 1a (greenhouse pots, visual rating); type: in vivo, Lolium rigidum; conditions: Dosage 320 g/ha; rated visually about 3 weeks after treatment; 100% = plants have died, 0% = like control plants
Procedure: as §4

ECHCG [23] = experiment: Herbicidal pre-emergence action 2a (greenhouse pots, visual scoring); type: in vivo, Echinochloa crus-galli; conditions: dosage 320 g/ha, visual scoring after about 3 weeks
Source text: as §1

POLCO = experiment: as above; type: in vivo, Polygonum convolvulus; conditions: dosage 320 g/ha, visual scoring after about 3 weeks vs untreated controls
Source text: as §1

AVEFA [24] = experiment: as above; type: in vivo, Avena fatua; conditions: dosage 320 g/ha, visual scoring after about 3 weeks
Source text: as §1

Compound	Pre-emergence action against VIOTR in % (VIOTR [1])	Pre-emergence action against AMARE in % (AMARE [2])	Post-emergence action at 1280 g/ha against MATIN in % (MATIN [4])	Pre-emergence action at 1280 g/ha against MATIN in % (MATIN [5])	Post-emergence action at 1280 g/ha against POAAN in % (POAAN [6])	Pre-emergence action at 1280 g/ha against STEME in % (STEME [7])	Post-emergence action at 1280 g/ha against STEME in % (STEME [8])	Pre-emergence action at 1280 g/ha against AMARE in % (AMARE [9])	Pre-emergence action at 1280 g/ha against DIGSA in % (DIGSA [10])	Pre-emergence action at 1280 g/ha against POAAN in % (POAAN [11])	Pre-emergence action at 1280 g/ha against ECHCG in % (ECHCG [14])	Pre-emergence action against ALOMY in % (ALOMY [20])	also measured
COC(=O)COc1nn(-c2nccnc2F)c(-c2ccc(F)nc2)c1Br [Example I-77]	80%	80%											Pre-emergence action against MATIN in % (MATIN [3]): 80%
COC(=O)[C@@H](C)Oc1nn(-c2cnccn2)c(-c2cnc(F)c(F)c2)c1Br [Example I-43]			100%	90%	100%	100%	90%	100%	100%	100%			
COC(=O)[C@H](C)Oc1nn(-c2cnccn2)c(-c2cccc(F)c2)c1Br [Example I-21]	100%	100%	90%	100%	100%	100%	100%	100%		100%	100%	80%	Post-emergence action against VERPE in % (VERPE [12]): 80%; Pre-emergence action against VERPE in % (VERPE [13]): 90%; Post-emergence action against PHBPU in % (PHBPU): 80%; Pre-emergence action against SETVI in % (SETVI): 90%; Post-emergence action against ALOMY in % (ALOMY [15]): 90%; Post-emergence action against AMARE in % (AMARE [16]; dosage 80 g/ha): 80%; Post-emergence action against AMARE in % (AMARE [16]; dosage 320 g/ha): 90%; Post-emergence action against VIOTR in % (VIOTR [17]; dosage 80 g/ha): 80%; Post-emergence action against VIOTR in % (VIOTR [17]; dosage 320 g/ha): 90%; Pre-emergence action against MATIN in % (MATIN [3]): 80%; Post-emergence action against AVEFA in % (AVEFA [18]): 80%; Pre-emergence action against LOLRI in % (LOLRI [19]): 90%; Pre-emergence action against DIGSA in % (DIGSA [21]): 90%; Post-emergence action against LOLRI in % (LOLRI [22]): 90%
CCOC(=O)COc1nn(-c2cnccn2)c(-c2ccc(F)nc2)c1[N+](=O)[O-] [Example I-50]			90%	90%	90%	90%	90%	100%	100%	100%			
COC(=O)[C@@H](C)Oc1nn(-c2cnccn2)c(-c2ccc(F)nc2)c1C#N [Example I-25]	90%			90%	90%		90%	100%	100%	100%	90%	80%	Pre-emergence action against VERPE in % (VERPE [13]): 90%; Post-emergence action against ALOMY in % (ALOMY [15]): 80%; Post-emergence action against AMARE in % (AMARE [16]; dosage 320 g/ha): 80%; Post-emergence action against VIOTR in % (VIOTR [17]; dosage 320 g/ha): 90%
C[C@@H](Oc1nn(-c2cnccn2)c(-c2cncc(F)c2)c1Cl)C(=O)O [Example 1-97]													Pre-emergence action against ECHCG in % (ECHCG [23]): 100%
C[C@@H](Oc1nn(-c2nccnc2Cl)c(-c2ccc(F)nc2)c1Br)C(=O)O [Example I-75]	80%	90%										100%	Pre-emergence action against POLCO in % (POLCO): 80%; Pre-emergence action against LOLRI in % (LOLRI [19]): 100%; Pre-emergence action against AVEFA in % (AVEFA [24]): 90%
O=C(O)COc1nn(-c2cnccn2)c(-c2ccc(F)c(F)c2)c1Br [Example I-41]			90%	100%	100%	100%		100%	100%	100%	100%		
